Measured values from patent publication US20040014047A1, “Antisense modulation of LIM domain kinase 1 expression” (Isis Pharmaceuticals Inc., priority 2002, published 2004).
Strand notation (5' to 3'): a small letter for the sugar, then the base; units joined by * are phosphorothioate-linked, units joined directly phosphodiester-linked; [ ] holds rarer units or linkages, { } end groups; capitals alone tell only the bases. e = 2'-O-(2-methoxyethyl) (MOE); [5mC] = 5-methylcytosine; d = 2'-deoxy (DNA)

What was measured:
LIM domain kinase 1 mRNA = assay: Antisense inhibition of LIM domain kinase 1 expression, dose response in A549 cells, real-time quantitative PCR; assay type: cell-based, human; details: for Percent Inhibition of LIM Domain Kinase 1 mRNA Levels: averaged from two experiments, normalized to untreated control; for reduction of LIM domain kinase 1 mRNA levels (dose response): 6, 25, 100 and 400 nM
Protocol: When cells reached 70% confluency, they were treated with oligonucleotide. […] Cells were harvested 16-24 hours after oligonucleotide treatment.
PCR reagents were obtained from Invitrogen Corporation, (Carlsbad, Calif.).
Probes and primers to human LIM domain kinase 1 were designed to hybridize to a human LIM domain kinase 1 sequence, using published sequence information (GenBank accession number D26309.1, incorporated herein as SEQ ID NO:4). For human LIM domain kinase 1 the PCR primers were: forward primer: […] (SEQ ID NO: 5) reverse primer: […] (SEQ ID NO: 6) and the PCR probe was: FAM-[…]-TAMRA (SEQ ID NO: 7) where FAM is the fluorescent dye and TAMRA is the quencher dye.
In accordance with the present invention, three of the oligonucleotides targeted to LIM domain kinase 1: ISIS 206212 ([…], SEQ ID NO: 67), ISIS 206219 ([…], SEQ ID NO: 74) and ISIS 206214 ([…], SEQ ID NO: 69) were investigated in a dose response experiment. The scrambled control oligonucleotides used in the dose response study were ISIS 129695 ([…], SEQ ID NO: 147), and ISIS 114845 ([…], SEQ ID NO: 148).
All cytidine residues are 5-methylcytidines.
In the dose-response experiment, with mRNA levels as the endpoint, A549 cells were treated with ISIS 206212, ISIS 206219, ISIS 206214 and control oligonucleotides at doses of 6, 25, 100 and 400 nM oligonucleotide. Data were obtained by real-time quantitative PCR as described in other examples herein and are averaged from two experiments with mRNA levels in the treatment groups, (including the scrambled control), being normalized to an untreated control group.

[1] = tested on: human LIM domain kinase 1 mRNA; assay: Antisense inhibition of human LIM domain kinase 1 mRNA levels, quantitative real-time PCR, A549 cells (screen); assay type: cell-based; details: for % INHIB (inhibition of human LIM domain kinase 1 mRNA levels): quantitative real-time PCR, averages from two experiments, screening concentration not given (50 nM to 300 nM used herein); for inhibition of human LIM domain kinase 1 expression (text summary of Table 1): real-time PCR, bound stated
Summary of the method: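 A549 cells at 70% confluency treated with antisense oligonucleotides (all cytidines 5-methylcytidine), harvested 16-24 h later. LIMK1 mRNA measured by real-time RT-PCR with FAM/TAMRA probe, normalized to total RNA by RiboGreen; values are averages of two experiments.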

## 114845 (eT*eA*e[5mC]*eG*eT*d[5mC]*d[5mC]*dG*dG*dA*dG*dG*d[5mC]*dG*dT*eA*e[5mC]*eG*e[5mC]*e[5mC]) [compound 114845]
LIM domain kinase 1 mRNA; dose 6 nM
  Percent Inhibition of LIM Domain Kinase 1 mRNA Levels: 0%
LIM domain kinase 1 mRNA; dose 25 nM
  Percent Inhibition of LIM Domain Kinase 1 mRNA Levels: 0%
LIM domain kinase 1 mRNA; dose 100 nM
  Percent Inhibition of LIM Domain Kinase 1 mRNA Levels: 0%
LIM domain kinase 1 mRNA; dose 400 nM
  Percent Inhibition of LIM Domain Kinase 1 mRNA Levels: 24%

## 129695 (eT*eT*e[5mC]*eT*eA*d[5mC]*d[5mC]*dT*d[5mC]*dG*d[5mC]*dG*d[5mC]*dG*dA*eT*eT*eT*eA*e[5mC]) [compound 129695]
LIM domain kinase 1 mRNA; dose 6 nM
  Percent Inhibition of LIM Domain Kinase 1 mRNA Levels: 2%
LIM domain kinase 1 mRNA; dose 25 nM
  Percent Inhibition of LIM Domain Kinase 1 mRNA Levels: 0%
LIM domain kinase 1 mRNA; dose 100 nM
  Percent Inhibition of LIM Domain Kinase 1 mRNA Levels: 12%
LIM domain kinase 1 mRNA; dose 400 nM
  Percent Inhibition of LIM Domain Kinase 1 mRNA Levels: 62%

## 206212 (antisense eA*e[5mC]*eT*e[5mC]*e[5mC]*d[5mC]*d[5mC]*dA*dT*dT*dT*dG*dG*dT*dT*e[5mC]*e[5mC]*eT*eG*eG) [compound 206212]
[1]
  % INHIB (inhibition of human LIM domain kinase 1 mRNA levels): 91%
LIM domain kinase 1 mRNA; dose 6 nM
  Percent Inhibition of LIM Domain Kinase 1 mRNA Levels: 0%
LIM domain kinase 1 mRNA; dose 25 nM
  Percent Inhibition of LIM Domain Kinase 1 mRNA Levels: 73%
LIM domain kinase 1 mRNA; dose 100 nM
  Percent Inhibition of LIM Domain Kinase 1 mRNA Levels: 91%
LIM domain kinase 1 mRNA; dose 400 nM
  Percent Inhibition of LIM Domain Kinase 1 mRNA Levels: 97%

## 206214 (antisense e[5mC]*e[5mC]*eG*eG*e[5mC]*d[5mC]*dA*dG*dG*dG*d[5mC]*dA*d[5mC]*d[5mC]*dG*e[5mC]*eA*eG*e[5mC]*eT) [compound 206214]
[1]
  % INHIB (inhibition of human LIM domain kinase 1 mRNA levels): 87%
LIM domain kinase 1 mRNA; dose 6 nM
  Percent Inhibition of LIM Domain Kinase 1 mRNA Levels: 0%
LIM domain kinase 1 mRNA; dose 25 nM
  Percent Inhibition of LIM Domain Kinase 1 mRNA Levels: 46%
LIM domain kinase 1 mRNA; dose 100 nM
  Percent Inhibition of LIM Domain Kinase 1 mRNA Levels: 84%
LIM domain kinase 1 mRNA; dose 400 nM
  Percent Inhibition of LIM Domain Kinase 1 mRNA Levels: 98%

## 206219 (antisense eT*eG*e[5mC]*eA*e[5mC]*dT*dG*dA*dG*dA*dA*dA*dG*d[5mC]*dT*eT*e[5mC]*eA*e[5mC]*eA) [compound 206219]
[1]
  % INHIB (inhibition of human LIM domain kinase 1 mRNA levels): 89%
LIM domain kinase 1 mRNA; dose 6 nM
  Percent Inhibition of LIM Domain Kinase 1 mRNA Levels: 0%
LIM domain kinase 1 mRNA; dose 25 nM
  Percent Inhibition of LIM Domain Kinase 1 mRNA Levels: 67%
LIM domain kinase 1 mRNA; dose 100 nM
  Percent Inhibition of LIM Domain Kinase 1 mRNA Levels: 84%
LIM domain kinase 1 mRNA; dose 400 nM
  Percent Inhibition of LIM Domain Kinase 1 mRNA Levels: 93%

## actccccatttggttcctgg (eA*e[5mC]*eT*e[5mC]*e[5mC]*d[5mC]*d[5mC]*dA*dT*dT*dT*dG*dG*dT*dT*e[5mC]*e[5mC]*eT*eG*eG; antisense) [ISIS 206212]
[1]
  inhibition of human LIM domain kinase 1 expression (text summary of Table 1): at least 65%
LIM domain kinase 1 mRNA
  reduction of LIM domain kinase 1 mRNA levels (dose response): capable of reducing LIM domain kinase 1 mRNA levels in a dose-dependent manner

## ccggccagggcaccgcagct (e[5mC]*e[5mC]*eG*eG*e[5mC]*d[5mC]*dA*dG*dG*dG*d[5mC]*dA*d[5mC]*d[5mC]*dG*e[5mC]*eA*eG*e[5mC]*eT; antisense) [ISIS 206214]
[1]
  inhibition of human LIM domain kinase 1 expression (text summary of Table 1): at least 65%
LIM domain kinase 1 mRNA
  reduction of LIM domain kinase 1 mRNA levels (dose response): capable of reducing LIM domain kinase 1 mRNA levels in a dose-dependent manner

## tagcgggcccagtagtcctt (eT*eA*eG*e[5mC]*eG*dG*dG*d[5mC]*d[5mC]*d[5mC]*dA*dG*dT*dA*dG*eT*e[5mC]*e[5mC]*eT*eT; antisense) [ISIS 206175]
[1]
  inhibition of human LIM domain kinase 1 expression (text summary of Table 1): at least 65%

## tcacggtgtgtcaccttgat (eT*e[5mC]*eA*e[5mC]*eG*dG*dT*dG*dT*dG*dT*d[5mC]*dA*d[5mC]*d[5mC]*eT*eT*eG*eA*eT; antisense) [ISIS 206195]
[1]
  inhibition of human LIM domain kinase 1 expression (text summary of Table 1): at least 65%

## tccaggcatcgcatgacctt (eT*e[5mC]*e[5mC]*eA*eG*dG*d[5mC]*dA*dT*d[5mC]*dG*d[5mC]*dA*dT*dG*eA*e[5mC]*e[5mC]*eT*eT; antisense) [ISIS 206198]
[1]
  inhibition of human LIM domain kinase 1 expression (text summary of Table 1): at least 65%

## tccttcttgcagaagagctg (eT*e[5mC]*e[5mC]*eT*eT*d[5mC]*dT*dT*dG*d[5mC]*dA*dG*dA*dA*dG*eA*eG*e[5mC]*eT*eG; antisense) [ISIS 206172]
[1]
  inhibition of human LIM domain kinase 1 expression (text summary of Table 1): at least 65%

## tcgagggtcagctggagcag (eT*e[5mC]*eG*eA*eG*dG*dG*dT*d[5mC]*dA*dG*d[5mC]*dT*dG*dG*eA*eG*e[5mC]*eA*eG; antisense) [ISIS 206188]
[1]
  inhibition of human LIM domain kinase 1 expression (text summary of Table 1): at least 65%

## tgcactgagaaagcttcaca (eT*eG*e[5mC]*eA*e[5mC]*dT*dG*dA*dG*dA*dA*dA*dG*d[5mC]*dT*eT*e[5mC]*eA*e[5mC]*eA; antisense) [ISIS 206219]
[1]
  inhibition of human LIM domain kinase 1 expression (text summary of Table 1): at least 65%
LIM domain kinase 1 mRNA
  reduction of LIM domain kinase 1 mRNA levels (dose response): capable of reducing LIM domain kinase 1 mRNA levels in a dose-dependent manner

## tggatggaattcttcacatc (eT*eG*eG*eA*eT*dG*dG*dA*dA*dT*dT*d[5mC]*dT*dT*d[5mC]*eA*e[5mC]*eA*eT*e[5mC]; antisense) [ISIS 206183]
[1]
  inhibition of human LIM domain kinase 1 expression (text summary of Table 1): at least 65%

## tgtccatgctcttgatgatg (eT*eG*eT*e[5mC]*e[5mC]*dA*dT*dG*d[5mC]*dT*d[5mC]*dT*dT*dG*dA*eT*eG*eA*eT*eG; antisense) [ISIS 206199]
[1]
  inhibition of human LIM domain kinase 1 expression (text summary of Table 1): at least 65%

## ttcttccctccaggtgcaac (eT*eT*e[5mC]*eT*eT*d[5mC]*d[5mC]*d[5mC]*dT*d[5mC]*d[5mC]*dA*dG*dG*dT*eG*e[5mC]*eA*eA*e[5mC]; antisense) [ISIS 206166]
[1]
  inhibition of human LIM domain kinase 1 expression (text summary of Table 1): at least 65%
